Key:
[1] = tested on: MV-4-11; assay: Oncology cell growth assay MV-4-11 (CellTiter Glo, 72 hours); format: cell-based; conditions: Homo sapiens, MV4-11, 72 h; MV-4-11 cell growth inhibitory activity, 3d
In short: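 MV-4-11 cells (MLL-AF4 AML) exposed 72 h to 8-point 1:3 titration, top final 10 μM, 0.2% DMSO. CellTiter Glo luminescence as cell-number readout, normalized to DMSO controls; pIC50 from four-parameter fit.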

[2] = tested on: bromodomain; assay: Bromodomain cell assays of Example 40 (at least one of them); format: cell-based; conditions: in at least one of the bromodomain cell assays described in Example 40
In short: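 Growth inhibition: 3000 MV-4-11, MOLM-13, MM.1S or neuroblastoma cells/well got an 8-point 1:3 series from 10 μM top (0.2% DMSO) for 72 h, then CellTiter-Glo luminescence. Myc reporter: MV-4-11 with E-box firefly luciferase, 24 h exposure, One-Glo luminescence plus CellTiter-Fluo cell count. pIC50 from four-parameter fit.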

IC50 [1] [µM] | IC50 [2] [µM] | Compound
≤ 1 | < 10 | Cc1noc(C)c1-c1cnc2c(-c3cnn(C(F)F)c3)cn(S(=O)(=O)c3ccccc3F)c2c1 [P-0132, 4-[3-[1-(difluoromethyl)pyrazol-4-yl]-1-(2-fluorophenyl)sulfonyl-pyrrolo[3,2-b]pyridin-6-yl]-3,5-dimethyl-isoxazole]
≤ 1 | < 10 | Cc1noc(C)c1-c1cnc2c(-c3cc(C(F)(F)F)n[nH]3)cn(C(C)c3ccccc3)c2c1 (stereo not drawn) [P-0215, 3,5-dimethyl-4-[1-(1-phenylethyl)-3-[3-(trifluoromethyl)-1H-pyrazol-5-yl]pyrrolo[3,2-b]pyridin-6-yl]isoxazole]
≤ 1 | < 10 | Cc1noc(C)c1-c1cnc2[nH]cc(C(C)(C)c3ccc(F)cc3)c2c1 [P-0063, 4-[3-[1-(4-fluorophenyl)-1-methyl-ethyl]-1H-pyrrolo[2,3-b]pyridin-5-yl]-3,5-dimethyl-isoxazole]
≤ 1 | < 10 | Cc1noc(C)c1-c1cnc2c(-c3cnn(C)c3)cn(Cc3ccccc3C(F)(F)F)c2c1 [P-0188, 3,5-dimethyl-4-[3-(1-methylpyrazol-4-yl)-1-[[2-(trifluoromethyl)phenyl]methyl]pyrrolo[3,2-b]pyridin-6-yl]isoxazole]
≤ 1 | < 10 | Cc1noc(C)c1-c1cnc2c(-c3cnn(C)c3)cn(Cc3cc(F)ccc3Cl)c2c1 [P-0190, 4-[1-[(2-chloro-5-fluoro-phenyl)methyl]-3-(1-methylpyrazol-4-yl)pyrrolo[3,2-b]pyridin-6-yl]-3,5-dimethyl-isoxazole]
1 to 10 | < 10 | Cc1noc(C)c1-c1cnc2[nH]cc(Cc3ccccc3Cl)c2c1 [P-0026, 4-[3-[(2-chlorophenyl)methyl]-1H-pyrrolo[2,3-b]pyridin-5-yl]-3,5-dimethyl-isoxazole]
1 to 10 | < 10 | Cc1noc(C)c1-c1cnc2c(-c3cnc(C4CC4)nc3)cn(S(=O)(=O)C3CCCC3)c2c1 [P-0103, 4-[1-cyclopentylsulfonyl-3-(2-cyclopropylpyrimidin-5-yl)pyrrolo[3,2-b]pyridin-6-yl]-3,5-dimethyl-isoxazole]
≤ 1 | < 10 | C=CCn1cc(-c2cn(S(=O)(=O)c3ccccc3F)c3cc(-c4c(C)noc4C)cnc23)cn1 [P-0127, 4-[3-(1-allylpyrazol-4-yl)-1-(2-fluorophenyl)sulfonyl-pyrrolo[3,2-b]pyridin-6-yl]-3,5-dimethyl-isoxazole]
≤ 1 | < 10 | COCCn1cc(-c2cn(S(=O)(=O)c3ccccc3)c3cc(-c4c(C)noc4C)cnc23)cn1 [P-0147, 4-[1-(benzenesulfonyl)-3-[1-(2-methoxyethyl)pyrazol-4-yl]pyrrolo[3,2-b]pyridin-6-yl]-3,5-dimethyl-isoxazole]
1 to 10 | < 10 | Cc1noc(C)c1-c1cnc2[nH]cc(Cc3ccccc3OC(F)F)c2c1 [P-0047, 4-[3-[[2-(difluoromethoxy)phenyl]methyl]-1H-pyrrolo[2,3-b]pyridin-5-yl]-3,5-dimethyl-isoxazole]
1 to 10 | < 10 | Cc1noc(C)c1-c1cnc2[nH]cc(C(O)c3cccc(OC(F)(F)F)c3)c2c1 (stereo not drawn) [P-0039, [5-(3,5-dimethylisoxazol-4-yl)-1H-pyrrolo[2,3-b]pyridin-3-yl]-[3-(trifluoromethoxy)phenyl] methanol]
1 to 10 | < 10 | COc1ncc(-c2cn(S(=O)(=O)C3CCCC3)c3cc(-c4c(C)noc4C)cnc23)cn1 [P-0105, 4-[1-cyclopentylsulfonyl-3-(2-methoxypyrimidin-5-yl)pyrrolo[3,2-b]pyridin-6-yl]-3,5-dimethyl-isoxazole]
1 to 10 | < 10 | CCCCS(=O)(=O)n1ccc2ncc(-c3c(C)noc3C)cc21 [P-0036, 4-(1-butylsulfonylpyrrolo [3,2-b]pyridin-6-yl)-3,5-dimethyl-isoxazole]
≤ 1 | < 10 | Cc1noc(C)c1-c1cnc2[nH]c(-c3ccc(F)cc3)c(Cc3cccnc3)c2c1 [P-0007, 4-[2-(4-fluorophenyl)-3-(3-pyridylmethyl)-1H-pyrrolo[2,3-b]pyridin-5-yl]-3,5-dimethyl-isoxazole]
1 to 10 | < 10 | Cc1noc(C)c1-c1cnc2ccn(S(=O)(=O)c3ccccc3F)c2c1 [P-0060, 4-[1-(2-fluorophenyl)sulfonylpyrrolo[3,2-b]pyridin-6-yl]-3,5-dimethyl-isoxazole]
≤ 1 | < 10 | COC(c1c[nH]c2ncc(-c3c(C)noc3C)cc12)C1CCC(F)(F)CC1 (stereo not drawn) [P-0073, 4-[3-[(4,4-difluorocyclohexyl)-methoxy-methyl]-1H-pyrrolo[2,3-b]pyridin-5-yl]-3,5-dimethyl-isoxazole]
1 to 10 | < 10 | Cc1noc(C)c1-c1cnc2[nH]cc(Sc3ccccc3)c2c1 [P-0144, 3,5-dimethyl-4-(3-phenylsulfanyl-1H-pyrrolo[2,3-b]pyridin-5-yl)isoxazole]

IC50 [1] [µM] | IC50 [2] [µM] | Compound
≤ 1 | < 10 | CCNC(=O)N1CCC(Cc2cn(C)c3ncc(-c4c(C)noc4C)cc23)CC1 [P-0117, 4-[[5-(3,5-dimethylisoxazol-4-yl)-1-methyl-pyrrolo[2,3-b]pyridin-3-yl]methyl]-N-ethyl-piperidine-1-carboxamide]
1 to 10 | < 10 | COC(c1cn(S(=O)(=O)C2CCCCC2)c2cc(-c3c(C)noc3C)cnc12)C1CC1 (stereo not drawn) [P-0071, 4-[1-cyclohexylsulfonyl-3-[cyclopropyl(methoxy)methyl]pyrrolo[3,2-b]pyridin-6-yl]-3,5-dimethyl-isoxazole]
1 to 10 | < 10 | Cc1noc(C)c1-c1cnc2[nH]cc(Cc3cccc4c3OC(F)(F)O4)c2c1 [P-0048, 4-[3-[(2,2-difluoro-1,3-benzodioxol-4-yl)methyl]-1H-pyrrolo[2,3-b]pyridin-5-yl]-3,5-dimethyl-isoxazole]
1 to 10 | < 10 | Cc1noc(C)c1-c1cnc2[nH]cc(C3(O)CCC(F)(F)CC3)c2c1 [P-0024, 1-[5-(3,5-dimethylisoxazol-4-yl)-1H-pyrrolo[2,3-b]pyridin-3-yl]-4,4-difluoro-cyclohexanol]
≤ 1 | < 10 | C=CCn1cc(-c2cn(C(C)c3ccccc3)c3cc(-c4c(C)noc4C)cnc23)cn1 (stereo not drawn) [P-0201, 4-[3-(1-allylpyrazol-4-yl)-1-(1-phenylethyl)pyrrolo[3,2-b]pyridin-6-yl]-3,5-dimethyl-isoxazole]
≤ 1 | < 10 | Cc1noc(C)c1-c1cnc2c(-c3cnn(C4CCOC4)c3)cn(S(=O)(=O)c3ccccc3)c2c1 (stereo not drawn) [P-0148, 4-[1-(benzenesulfonyl)-3-(1-tetrahydrofuran-3-ylpyrazol-4-yl)pyrrolo[3,2-b]pyridin-6-yl]-3,5-dimethyl-isoxazole]
1 to 10 | < 10 | COc1ncc(C(O)c2c[nH]c3ncc(-c4c(C)noc4C)cc23)cc1F (stereo not drawn) [P-0025, [5-(3,5-dimethylisoxazol-4-yl)-1H-pyrrolo[2,3-b]pyridin-3-yl]-(5-fluoro-6-methoxy-3-pyridyl)methanol]
≤ 1 | < 10 | CCn1cc(-c2cn(C(C)c3ccccc3)c3cc(-c4c(C)noc4C)cnc23)cn1 (stereo not drawn) [P-0200, 4-[3-(1-ethylpyrazol-4-yl)-1-(1-phenylethyl)pyrrolo[3,2-b]pyridin-6-yl]-3,5-dimethyl-isoxazole]
≤ 1 | < 10 | Cc1noc(C)c1-c1cnc2[nH]cc(CC3CCC(F)(F)CC3)c2c1 [P-0034, 4-[3-[(4,4-difluorocyclohexyl)methyl]-1H-pyrrolo[2,3-b]pyridin-5-yl]-3,5-dimethyl-isoxazole]
≤ 1 | < 10 | Cc1noc(C)c1-c1cnc2[nH]cc(C(O)c3ccccc3Cl)c2c1 (stereo not drawn) [P-0019, (2-chlorophenyl)-[5-(3,5-dimethylisoxazol-4-yl)-1H-pyrrolo[2,3-b]pyridin-3-yl]methanol]
≤ 1 | < 10 | Cc1noc(C)c1-c1cnc2[nH]cc(S(=O)(=O)c3ccccc3)c2c1 [P-0145, 4-[3-(benzenesulfonyl)-1H-pyrrolo[2,3-b]pyridin-5-yl]-3,5-dimethyl-isoxazole]
1 to 10 | < 10 | CC(=O)N1CCC(Cc2cn(C)c3ncc(-c4c(C)noc4C)cc23)CC1 [P-0120, 1-[4-[[5-(3,5-dimethylisoxazol-4-yl)-1-methyl-pyrrolo[2,3-b]pyridin-3-yl]methyl]-1-piperidyl]ethanone]
1 to 10 | < 10 | CCS(=O)(=O)n1cc(C(OC)C2CCC(F)(F)CC2)c2cc(-c3c(C)noc3C)cnc21 (stereo not drawn) [P-0078, 4-[3-[(4,4-difluorocyclohexyl)-methoxy-methyl]-1-ethylsulfonyl-pyrrolo[2,3-b]pyridin-5-yl]-3,5-dimethyl-isoxazole]
≤ 1 | < 10 | CCCS(=O)(=O)n1cc(-c2cnn(C3CCOC3)c2)c2ncc(-c3c(C)noc3C)cc21 (stereo not drawn) [P-0154, 3,5-dimethyl-4-[1-propylsulfonyl-3-(1-tetrahydrofuran-3-ylpyrazol-4-yl)pyrrolo [3,2-b]pyridin-6-yl] isoxazole]
≤ 1 | < 10 | Cc1noc(C)c1-c1cnc2c(-c3cnn(C)c3)cn(Cc3ccccc3Cl)c2c1 [P-0193, 4-[1-[(2-chlorophenyl)methyl]-3-(1-methylpyrazol-4-yl)pyrrolo[3,2-b]pyridin-6-yl]-3,5-dimethyl-isoxazole]
≤ 1 | < 10 | Cc1noc(C)c1-c1cnc2c(-c3cnn(C)c3)cn(S(=O)(=O)C3CCCC3)c2c1 [P-0112, 4-[1-cyclopentylsulfonyl-3-(1-methylpyrazol-4-yl)pyrrolo[3,2-b]pyridin-6-yl]-3,5-dimethyl-isoxazole]

Reference: patent US10501460B2, “Heterocyclic compounds and uses thereof” (Plexxikon Inc., priority 2013, dated 2019)
